Experimental data published in patent publication US20140039047A1, “METHODS FOR REGULATING SIRTUIN GENE EXPRESSION” (priority 2011, published 2014).

Experiments:
Assay in all cases: Quantitative PCR of sirtuin gene expression in canine adipocytes treated with Equol
Format in all cases: cell-based
Details in all cases: 24 hours, terminally differentiated canine adipocytes, normalized to cyclophilin A (PPIA), n=3
SIRT3 = system: SIRT3
Method: (§1) Treatment: Terminally differentiated canine adipocytes were exposed to 200, 25, and 0 uM Equol for 24 hours. Cells were collected for RNA isolation.
(§2) RNA Isolation: Treatment cell samples were vortexed and homogenized using a Quiashredder (Qiagen, Valencia, Calif.) column according to manufacturer's directions. The homogenized lysate was collected and 1 equal volume of 64% ethanol was added to it. This mixture was then applied to an RNAqueous™ filter cartridge, (Ambion Inc., Austin, Tex.) 700 uL at a time, and centrifuged for one minute at 10,000 rpm. The cartridge was washed using 700 uL wash solution #1 and 500 uL wash solution #⅔ with centrifugation at 10,000 rpm for one minute for each wash. The filter cartridge was dried by centrifugation (10,000 rpm) for one minute. RNA was eluted three times by centrifugation (as above) using 30 uL aliquots of 70-80° C. elution solution. The resulting RNA was DNAse-treated and quantitated in a Beckman DU 640B spectrophotometer (Beckman Coulter, Inc., Brea, Calif.) at 260 nm. Additionally, quantity and quality were assessed using a bioanalyzer (Agilent, Santa Clara, Calif.) according to manufacturer's directions.
(§3) Quantitative PCR: All samples were run singularly against each primer/probe set to determine what standard curve(s) should be used. Standard curves were generated using serial dilutions of RNA from experimental samples with the lowest CT (cycle threshold) for a given target. 1-2 samples were re-reverse transcribed and a 1:5 serial dilution were used as the standard curve for a given target. Targets run included sirtuin −1, −2, −3 and −6. Values were normalized to cyclophilin A (PPIA) levels as determined by quantitative PCR. Inductions were calculated from each of the lowest sample's normalized value. Each set was run with n=3.

SIRT2 = system: SIRT2
Method: as §1, §2, §3

SIRT6 = system: SIRT6
Method: as §1, §2, §3

SIRT1 = system: SIRT1
Method: as §1, §2, §3

Oc1ccc([C@H]2COc3cc(O)ccc3C2)cc1 [Equol]
Expression of SIRT3 gene (relative expression) (SIRT3; 25 uM Equol): 10.86
Expression of SIRT3 gene (relative expression) (SIRT3; 200 uM Equol): 17.21
Expression of SIRT2 gene (relative expression) (SIRT2; 25 uM Equol): 1.22
Expression of SIRT2 gene (relative expression) (SIRT2; 200 uM Equol): 2.37
Expression of SIRT6 gene (relative expression) (SIRT6; 25 uM Equol): 1.10
Expression of SIRT6 gene (relative expression) (SIRT6; 200 uM Equol): 1.23
Expression of SIRT1 gene (relative expression) (SIRT1; 25 uM Equol): 1.17
Expression of SIRT1 gene (relative expression) (SIRT1; 200 uM Equol): 1.80
